# Assay: Observation of the haloprogin / 2-octyl cyanoacrylate monomer composition in a sealed glass vial
# Format: physicochemical
# Conditions: 30 mg haloprogin in 2 mL 2-octyl cyanoacrylate monomer
# Experimental: A 2-octyl cyanoacrylate monomer composition is prepared by adding 30 mg of haloprogin, an anti-fungal agent, to 2 mL of 2-octyl cyanoacrylate monomer. The mixture is sealed in a glass vial and stirred. The characteristics of the composition are observed at about one minute after preparation and later at least twenty-four hours after preparation.
smiles,measurement,setting,value
Clc1cc(Cl)c(OCC#CI)cc1Cl [haloprogin],premature polymerization of the monomer,at least twenty-four hours after preparation,does not cause premature polymerization
same,solubility of haloprogin in the monomer,observed about one minute and at least twenty-four hours after preparation,soluble
